According to patent US8039501B2, “Synephrine derivatives useful as anti-inflammatory agents” (Universiteit Gent, priority 2005, dated 2011):

Tests used:
Format in all cases: cell-based, human
[1] = MTT test, cell viability of A549 cells; details: human, A549 lung epithelial (carcinoma) cells, read-out: Block of A549 cell viability
Procedure: The MTT test is a standard assay addressing cell toxicity of a compound. It is based on the principle that after 3-4 hours of cell incubation with MTT (3-(4,5-dimethylthiazole-2-yl)-2,5-diphenyl tetrazolium bromide) so-called purple formazan crystals develop in living and early apoptotic cells. Dead cells don't produce formazan crystals.
Different cell lines were tested. Unless indicated differently, A549 human lung epithelial cells (derived from lung carcinoma) and L929sA murine fibroblast cells were cultured in DMEM with 10% FCS, 100 U/ml penicillin and 100 μg/ml streptomycin. Unless indicated differently, the human multiple myeloma cell lines L363, U266 and MM1.S were cultured in RPMI 1640 with Glutamax-I, supplemented with 10% FCS, 100 U/ml penicillin and 100 μg/ml streptomycin. Cells were seeded at 5000 cells/well (for adherent A549 and L929sA cells) or at 10000 cells/well (for the multiple myeloma lines in suspension) in 96 well plates. Cells were incubated in the presence of the respective synephrine compounds or vehicle (EtOH; for control test) in a final volume of 0.2 ml for 24 or 48 hours at 37° C. Subsequently, 20 μl of MTT solution (5 mg/ml in phosphate-buffered saline) was added to each well. After 4 hours incubation at 37° C., 80 μl of the extraction buffer (10% SDS, 0.01 M HCl) was added. After overnight incubation at room temperature, the optical densities at 590 nm were measured. Results are illustrated in FIGS. 2 to 6 and are expressed as percentage of viable cells as compared to vehicle-treated controls.
In a further MTT test, the activity of the synephrine derivatives on the inhibition of cell viability of non-immune cells was measured. […] Tests were performed for 24 hours and for 48 hours. The results are illustrated by FIGS. 5A and 5B for L929 cells, and by FIGS. 6A and 6B for A549 cells. It was observed that CpdA at 10^−5 M blocked cell viability of L929sA and A549 for not more than 10%.

bfl1 gene = test: RNase protection analysis of bfl1 gene in MCF7 cells; details: 10 μM pre-treated 2 hours, TNF, FIG. 9
Procedure: In a first specific gene expression experiment, RNAse protection analysis on the bfl1 gene, coding for BCL2-related protein A1 that has anti-apoptotic activity. FIG. 9 illustrates the results of the RNAse protection analysis. Cells were pre-treated with CpdA (10 μM) and DEX (1 μM) for 2 hours before TNF induction or non-induction for a total period of 8 hours. Total RNA was recovered (see hereunder for the total RNA extraction protocol) and an RNA protection Assay (hereinafter referred to as RPA) was performed. Transcripts were quantified by autoradiography followed by densiometry.
For the total RNA extraction, 10^5 cell were homogenized in 1 ml of TRIzol Reagent (GIBCO BRL), incubated 5 minutes at room temperature; then added 200 μl chloroform, vortexed 15 seconds. Mix was incubated on ice for 5 minutes. […]
RNase Protection Assay (Pharmingen) was used for the detection and quantitation of A1/bfl mRNA species. […] The pelleted RNA was re-suspended in 6 μl of gel loading buffer, incubated at 95° C. for 5 minutes, quickly quenched on ice and analyzed by electrophoresis on 6% polyacrylamide/8M urea gels. Visualization and quantitation of radioactive bands was carried out by a Phosphorlmager and scanned using a bioimaging analyzer (Personal Molecular Imager® FX Bio-Rad). Densitometry analysis of autoradiograms was performed using Quantity One (Bio-Rad). […]

Saos-2 = test: Q-PCR gene expression in osteosarcoma cell-line Saos-2; details: 10 μM
Procedure: CpdA was synthesized as described previously. […] They were sacrificed and livers were isolated. […] Gene expression of HPRT was used for normalization. […] Gene expression of HPRT was used for normalization. […] Gene expression of HPRT was used for normalization. Statistical significance was determined by one way anova. […] Gene expression of HPRT was used for normalization. […] Gene expression of HPRT was used for normalization. Statistical significance was determined by one way anova. […] Statistical significance was determined with a Kruskal-Wallis test.

Work on `CNCC(Cl)c1ccc(OC(C)=O)cc1.Cl` (centres unmarked) [CpdA, 2-(4-acetoxyphenyl)-2-chloro-N-methyl-ethylammonium chloride] yielded a cytotoxicity at 24 h ([1]; 10^−4 M, 24 hours, FIG. 6A) of 20%, a cytotoxicity at 48 h ([1]; 10^−4 M, 48 hours, FIG. 6B) of 40% and a cytotoxicity ([1]; 10^−5 M, 24 hours and 48 hours, FIGS. 6A and 6B) of no more than 10%. The “Transcription of bfl1 gene (RNase protection)” value (bfl1 gene) was “inhibits transcription of the prosurvival gene A”, the RANKL/OPG ratio (Saos-2; 24 hours) was “does not alter the RANKL/OPG ratio” and the “Expression of osteoclast differentiation markers M-CSF and RANKL” value (Saos-2; 24 hours, FIG. 15, RANKL solvent versus CpdA p>0.05) was “does not stimulate the expression”. The “Expression of OPG” value (Saos-2; 24 hours, FIG. 15, solvent versus CpdA p>0.05) was “does not down-regulate the expression of OPG” and the “Expression of pro-inflammatory mediators (anti-inflammatory effect)” value (Saos-2; TNF 2000 U/ml 6 hours, FIG. 16) was “anti-inflammatory effect”.
